Measured values: patent US7960427B2, “5-hydroxyindole-3-carboxylate derivatives and uses thereof” (priority 2004, dated 2011)
≈ marks a conversion by molar mass, not a printed value. Structures can show the parent of a compound that is named as a salt. Where two headings read alike, the source gives them in different places.

Assays:
[1] = test system: influenza A virus, strain A/jifang/90-15; assay: microbe, parasite or virus in culture; assay type: cell-based; details: for IC50: Influenza strain A/jifang/90-15, MDCK cells, CPE, Reed-Muench; for SI: Influenza strain A/jifang/90-15
[2] = test system: Madin-Darby canine kidney (MDCK) cells
[3] = test system: HBV DNA; assay: In vitro anti-HBV activity: replication of HBV DNA in 2.2.15 cells (dot hybridization); assay type: cell-based, Hepatitis B virus (HBV); details: for IC50: Hepatitis B virus, read-out: DNA replication IC50; for DNA replication SI: selectivity index
Description: (§1) All compounds were evaluated for their anti-HBV activities, namely the ability to inhibit the replication of HBV DNA and the production of HBsAg and HBeAg in HBV-infected 2.2.15 cells.
(§2) The samples were dissolved in DMSO for appropriate concentrations, and then each was diluted 3-fold with culture medium. The 2.2.15 cells were planted into 96-well culture plates. […] The culture supernatants and 2.2.15 cells were collected respectively on the 8th plant day. The secretion concentrations of HBsAg and HBeAg in the culture supernatants were measured by RIA on SPRIA Kit for Detection of HBsAg and HBeAg (Beijing North Institute of Biological Technology), and the replication of HBV DNA was measured by dot hybridization with a^32PdCTP (FuRui Biological Technology Ltd., China).

[4] = test system: 2.2.15 cells; assay: Cytotoxicity (TC50) in 2.2.15 cells; assay type: cell-based
Description: as §1, §2

[5] = test system: HBsAg; assay: In vitro anti-HBV activity: HBsAg production in HBV-infected 2.2.15 cells (RIA); assay type: cell-based, Hepatitis B virus (HBV); details: for IC50: Hepatitis B virus, read-out: HBsAg IC50; for HBsAg SI: selectivity index
Description: as §1, §2

[6] = target: T1, HIV-1 protease (Human immunodeficiency virus type 1 group M subtype B, UniProt P04585); assay: Anti-HIV-1 protease activity (fluorescence labeled substrate); assay type: biochemical; details: for inhibition ratio at 0.5 ug/ml: sample concentration 0.5 ug/ml; for inhibition ratio at 2.0 ug/ml: sample concentration 2.0 ug/ml; for inhibition ratio at 10 ug/ml: sample concentration 10 ug/ml; for inhibition ratio at 50 ug/ml: sample concentration 50 ug/ml; for inhibition ratio at 250 ug/ml: sample concentration 250 ug/ml
T1 construct: The genetically engineered target enzyme (HIV-1 protease, preserved at −85° C.)
Description: HIV-1 protease can cut the fluorescence labeled substrate under optimal condition and reaction system, so the activity of enzyme is determined by the fluorescence in the product of enzymatic reaction. The samples are added into the reaction system to observe the inhibitive effect on the enzyme.
The samples and the reference drug Indinavir ([…].) were dissolved in DMSO or redistilled water for appropriate concentration. Each was diluted 5-fold and then added into the buffer containing fluorescence labeled substrate (MP Co.). The genetically engineered target enzyme (HIV-1 protease, preserved at −85° C.) was added to the buffer and incubated under the optimal reaction condition. The fluorescence was determined by FLUO star Galaxy fluorometer.

[7] = Influenza A virus, read-out: IC50

| Structure (SMILES) | IC50 [3] | DNA replication SI [3] | TC50 [4] | IC50 [5] | HBsAg SI [5] | other results |
| --- | --- | --- | --- | --- | --- | --- |
| CCOC(=O)c1c(CSc2ccccc2)n(C)c2cc(Br)c(O)c(CN(C)C)c12.Cl.O [Abidol, Ethyl 6-bromo-4-[(dimethylamino)methyl]-5-hydroxy-1-methyl-2-(phenyl-thiomethyl)-1H-indole-3-carboxylate hydrochloride monohydrate, reference compound] |  |  |  |  |  | IC50 [1, 7]: 23.2 µg/mL; SI [1]: 2.69; TC50 [2]: 62.5 µg/mL |
| CCOC(=O)c1c(CSc2nc3ccccc3[nH]2)n(C)c2cc(Br)c(O)c(CN(C)C)c12 [Example 3, Ethyl 6-bromo-4-[(dimethylamino)methyl]-5-hydroxy-1-methyl-2-[(benzo[d]imidazol-2-yl)thiomethyl]-1H-indole-3-carboxylate] |  |  |  |  |  | IC50 [1, 7]: 7.81 µg/mL (≈ 15.1 µM); SI [1]: 1.59; TC50 [2]: 12.4 µg/mL (≈ 24 µM) |
| CCOC(=O)c1c(CSCc2ccc(F)cc2)n(C)c2cc(Br)c(O)c(CN(C)C)c12.Cl [Example 5, Ethyl 6-bromo-4-[(dimethylamino)methyl]-5-hydroxy-1-methyl-2-[(4-fluorobenzyl)thiomethyl]-1H-indole-3-carboxylate hydrochloride] |  |  |  |  |  | IC50 [1, 7]: 7.81 µg/mL; SI [1]: 6.34; TC50 [2]: 49.51 µg/mL |
| CCOC(=O)c1c(CSCc2ccccc2F)n(C2CC2)c2cc(Br)c(O)c(CN3CCCC3)c12.Cl [Example 14, Ethyl 6-bromo-1-cyclopropyl-5-hydroxy-4-(1-pyrrolidinylmethyl)-2-[(2-fluorobenzyl)thiomethyl]-1H-indole-3-carboxylate hydrochloride] |  |  |  |  |  | IC50 [1, 7]: 0.92 µg/mL; SI [1]: 2.7; TC50 [2]: 2.48 µg/mL |
| CCOC(=O)c1c(CSc2nc3ccc(OC)cc3[nH]2)n(C)c2cc(Br)c(O)c(CN3CCOCC3)c12 [Example 25, Ethyl 6-bromo-5-hydroxy-1-methyl-4-(morpholinomethyl)-2-[(5-methoxybenzo[d]imidazol-2-yl)thiomethyl]-1H-indole-3-carboxylate] |  |  |  |  |  | IC50 [1, 7]: 22.1 µg/mL (≈ 37.5 µM); SI [1]: 5.66; TC50 [2]: 125.0 µg/mL (≈ 212 µM) |
| CCOC(=O)c1c(C[S+]([O-])Cc2cscn2)n(C2CC2)c2cc(Br)c(O)c(CN(C)C)c12 (stereo not shown) [Example 52, Ethyl 6-bromo-1-cyclopropyl-4-[(dimethylamino)methyl]-5-hydroxy-2-[(4-thiazolylmethyl)sulfinylmethyl]-1H-indole-3-carboxylate dihydrochloride] | 3.51 µg/mL | 18.27 | 64.15 µg/mL | 4.79 µg/mL | 13.39 |  |
| CCOC(=O)c1c(C[S+]([O-])Cc2ccco2)n(C)c2cc(Br)c(O)c(CN3CCCC3)c12 (stereo not shown) [Example 71, Ethyl 6-bromo-5-hydroxy-1-methyl-4-(1-pyrrolidinylmethyl)-2-[(2-furylmethyl)sulfinylmethyl]-1H-indole-3-carboxylate] | 23.9 µg/mL (≈ 45.6 µM) | 1.60 | 38.32 µg/mL (≈ 73.2 µM) | 18.4 µg/mL (≈ 35.1 µM) | 2.09 |  |
| CCOC(=O)c1c(C[S+]([O-])c2ccc(C(F)(F)F)cc2)n(C2CC2)c2cc(Br)c(O)c(CN(C)C)c12 (stereo not shown) [Example 79, Ethyl 6-bromo-1-cyclopropyl-4-[(dimethylamino)methyl]-5-hydroxy-2-[(4-trifluoromethylphenyl)sulfinylmethyl]-1H-indole-3-carboxylate] | 4.47 µg/mL (≈ 7.61 µM) | 3.83 | 17.12 µg/mL (≈ 29.1 µM) | 6.3 µg/mL (≈ 10.7 µM) | 2.72 |  |
| CCOC(=O)c1c(CS(=O)(=O)c2ccc(C(F)(F)F)cc2)n(C)c2cc(Br)c(O)c(CN3CCCC3)c12 [Example 82, Ethyl 6-bromo-5-hydroxy-1-methyl-4-(1-pyrrolidinylmethyl)-2-[(4-trifluoromethylphenyl)sulfonylmethyl]-1H-indole-3-carboxylate] | 6.1 µg/mL (≈ 10.1 µM) | 2.34 | 14.25 µg/mL (≈ 23.6 µM) | 7.83 µg/mL (≈ 13 µM) | 1.82 |  |
| CCOC(=O)c1c(CS(=O)(=O)c2cccc(C(F)(F)F)c2)n(C2CC2)c2cc(Br)c(O)c(CN3CCCC3)c12 [Example 83, Ethyl 6-bromo-1-cyclopropyl-5-hydroxy-4-(1-pyrrolidinylmethyl)-2-[(3-trifluoromethylphenyl)sulfonylmethyl]-1H-indole-3-carboxylate] | 6.38 µg/mL (≈ 10.1 µM) | 5.58 | 35.61 µg/mL (≈ 56.6 µM) | 18.3 µg/mL (≈ 29.1 µM) | 1.94 |  |
| CCOC(=O)c1c(CSc2nc3ccccc3[nH]2)n(C)c2cc(Br)c(O)c(Cn3ccnc3)c12.Cl [Example 94, Ethyl 6-bromo-5-hydroxy-4-[(1-imidazolyl)methyl]-1-methyl-2-[(benzo[d]imidazol-2-yl)thiomethyl]-1H-indole-3-carboxylate hydrochloride] |  |  | 53.42 µg/mL | 7.37 µg/mL | 7.25 |  |
| CCOC(=O)c1c(C[S+]([O-])c2ccc(F)cc2)n(C)c2cc(Br)c(O)c(Cn3ccnc3)c12 (stereo not shown) [Example 122, Ethyl 6-bromo-5-hydroxy-4-[(1-imidazolyl)methyl]-1-methyl-2-[(4-fluorophenyl)sulfinylmethyl]-1H-indole-3-carboxylate] | 13.6 µg/mL (≈ 25.5 µM) | 3.54 | 48.1 µg/mL (≈ 90 µM) | 11.4 µg/mL (≈ 21.3 µM) | 4.23 |  |
| CCOC(=O)c1c(C[S+]([O-])c2ccc(F)cc2)n(C2CC2)c2cc(Br)c(O)c(Cn3ccnc3C)c12 (stereo not shown) [Example 138, Ethyl 6-bromo-1-cyclopropyl-5-hydroxy-4-[(2-methyl-1-imidazolyl)methyl]-2-[(4-fluorophenyl)sulfinylmethyl]-1H-indole-3-carboxylate] | 5 µg/mL (≈ 8.7 µM) | 3.74 | 18.52 µg/mL (≈ 32.2 µM) |  |  | IC50 [6]: 111 µM; inhibition ratio at 0.5 ug/ml [6]: 6.8; inhibition ratio at 2.0 ug/ml [6]: −2.3; inhibition ratio at 10 ug/ml [6]: 6.4; inhibition ratio at 50 ug/ml [6]: 12.7; inhibition ratio at 250 ug/ml [6]: 75.7 |
| CCOC(=O)c1c(C[S+]([O-])c2ccc(F)cc2)n(C)c2cc(Br)c(O)c(CNC(=N)N)c12 (stereo not shown) [Example 153, Ethyl 6-bromo-4-(guanidinylmethyl)-5-hydroxy-1-methyl-2-[(4-fluorophenyl)sulfinylmethyl]-1H-indole-3-carboxylate] | 29.3 µg/mL (≈ 55.8 µM) | 4.27 | 125 µg/mL (≈ 238 µM) | 62.2 µg/mL (≈ 118 µM) | 2.01 | IC50 [6]: 133 µM; inhibition ratio at 0.5 ug/ml [6]: 7.2; inhibition ratio at 2.0 ug/ml [6]: 14.7; inhibition ratio at 10 ug/ml [6]: 11.2; inhibition ratio at 50 ug/ml [6]: 24.1; inhibition ratio at 250 ug/ml [6]: 75.3 |
| CCOC(=O)c1c(C[S+]([O-])c2ccc(F)cc2)n(C2CC2)c2cc(Br)c(O)c(CNC(=N)N)c12 (stereo not shown) [Example 154, Ethyl 6-bromo-1-cyclopropyl-4-(guanidinylmethyl)-5-hydroxy-2-[(4-fluorophenyl)sulfinylmethyl]-1H-indole-3-carboxylate] | 5.2 µg/mL (≈ 9.43 µM) | 3.63 | 18.52 µg/mL (≈ 33.6 µM) |  |  | IC50 [6]: 43.5 µM; inhibition ratio at 0.5 ug/ml [6]: 3.2; inhibition ratio at 2.0 ug/ml [6]: 13.2; inhibition ratio at 10 ug/ml [6]: 4.8; inhibition ratio at 50 ug/ml [6]: 19.8; inhibition ratio at 250 ug/ml [6]: 109.3 |
| CCOC(=O)c1c(CSc2cccc(F)c2)n(C)c2cc(Br)c(O)c(Cn3ccnc3)c12 [Example 175, Ethyl 6-bromo-5-hydroxy-4-[(1-imidazolyl)methyl]-1-methyl-2-[(3-fluorophenyl)thiomethyl]-1H-indole-3-carboxylate] | 4.65 µg/mL (≈ 8.97 µM) | 7.66 | 35.61 µg/mL (≈ 68.7 µM) | 2.45 µg/mL (≈ 4.73 µM) | 14.53 |  |
| CCOC(=O)c1c(C[S+]([O-])c2ccc(C(F)(F)F)cc2)n(C)c2cc(Br)c(O)c(Cn3ccnc3)c12 (stereo not shown) [Example 177, Ethyl 6-bromo-5-hydroxy-4-[(1-imidazolyl)methyl]-1-methyl-2-[(4-trifluoromethylphenyl)sulfinylmethyl]-1H-indole-3-carboxylate] | 15.9 µg/mL (≈ 27.2 µM) | 6.72 | 106.83 µg/mL (≈ 183 µM) | 31.5 µg/mL (≈ 53.8 µM) | 3.39 |  |
| CCOC(=O)c1c(CSc2nc3ccccc3[nH]2)n(C)c2cc(Br)c(O)c(Cn3ccnc3C)c12.Cl [Example 181, Ethyl 6-bromo-5-hydroxy-1-methyl-4-[(2-methyl-1-imidazolyl)methyl]-2-[(benzo[d]imidazol-2-yl)thiomethyl]-1H-indole-3-carboxylate hydrochloride] |  |  | 21.38 µg/mL | 1.55 µg/mL | 13.79 |  |
| NC(=O)c1ncn([C@@H]2O[C@H](CO)[C@@H](O)[C@H]2O)n1 [Ribovirin, reference compound] |  |  |  |  |  | IC50 [1]: >33.81 µg/mL |
